Laboratory results from PubChem BioAssay (NCI).
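Each compound was tested at five concentrations against cells in 96-well plates for 48 hours. GI50: concentration for 50% inhibition of growth. The concentration for full growth arrest is given as TGI.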

Legend:
Experiment in all cases: NCI-60 cell line screen, 48 h
CAKI-1 renal = system: CAKI-1 renal
MALME-3M melanoma = system: MALME-3M melanoma
SW-620 colon = system: SW-620 colon
TK-10 renal = system: TK-10 renal
EKVX NSCLC = system: EKVX NSCLC
NCI-H460 lung = system: NCI-H460 lung
MCF7 breast = system: MCF7 breast
SN12C renal = system: SN12C renal
SF-268 CNS = system: SF-268 CNS
OVCAR-8 ovarian = system: OVCAR-8 ovarian

Row | SMILES | GI50 (CAKI-1 renal) [µM] | TGI (CAKI-1 renal) [µM] | GI50 (MALME-3M melanoma) [µM] | TGI (MALME-3M melanoma) [µM] | GI50 (SW-620 colon) [µM] | TGI (SW-620 colon) [µM] | GI50 (TK-10 renal) [µM] | TGI (TK-10 renal) [µM] | GI50 (EKVX NSCLC) [µM] | TGI (EKVX NSCLC) [µM] | GI50 (NCI-H460 lung) [µM] | TGI (NCI-H460 lung) [µM] | GI50 (MCF7 breast) [µM] | TGI (MCF7 breast) [µM] | GI50 (SN12C renal) [µM] | TGI (SN12C renal) [µM] | GI50 (SF-268 CNS) [µM] | TGI (SF-268 CNS) [µM] | GI50 (OVCAR-8 ovarian) [µM] | TGI (OVCAR-8 ovarian) [µM]
1 | COc1ccc(Nn2c(SCC(=O)Nc3nc(-c4ccc(Cl)cc4)cs3)nc(C)c2C)cc1 | 2.16 | > 100 | 2.9 | > 100 | 4.78 | > 100 | 14.8 | 80.9 | 1.92 | > 100 | 2.69 | 10.6 | 3.36 | 25.5 | 2.3 | 7.52 | 2.81 | > 100 | 4.82 | > 100
2 | C=C1C[C@](OC)([C@H](O)C(=O)N[C@@H](OC)[C@@H]2C[C@@H](O)C(C)(C)[C@@H](C[C@@H](COC)OC)O2)O[C@H](C)[C@@H]1C | 0.00184 | 0.00544 | 0.000693 | 0.00343 | 0.00157 | 0.00508 | 0.00141 | 0.00388 | 0.00162 | 0.00667 | 0.00072 | 0.00266 | – | 0.00145 | 0.00174 | 0.00638 | 0.00195 | 0.00538 | 0.00322 | 0.0096
3 | CC(C)CCOc1ccc(-c2n[nH]c(C(F)(F)F)c2-c2cncc(C#N)c2)c(O)c1 | 3.17 | 13.6 | 1.85 | 6.56 | 3.44 | > 100 | 3.15 | 14.1 | 2.28 | 13.2 | 2.5 | 12.5 | 2.23 | > 100 | 2.34 | 15.9 | 4.18 | > 100 | 2.78 | 19.1
4 | COc1ccc(-c2ccc(/C=N/n3c(COc4ccccc4Cl)nn(CN4CCN(C)CC4)c3=S)o2)c([N+](=O)[O-])c1 | 5.19 | 14.6 | 20.9 | 49.2 | – | – | 12.9 | 45.4 | 21.5 | 70.5 | 14.7 | 37.6 | 12.9 | 33.8 | 17.9 | 35.2 | 17.5 | 45.1 | 17.3 | 42.2
5 | CCn1c2c(n(CC)c1=S)-c1c(n(CC)c(=S)n1CC)SSSS2 | – | 33.1 | – | 9.08 | – | 3.29 | – | 28.4 | – | 21.4 | – | > 77.9 | – | 40.7 | – | 24 | – | 44.4 | – | 23.3
6 | NC(CSC(c1ccccc1)(c1ccccc1)c1ccc(Cl)cc1)C(=O)O (configuration not stated) | 0.37 | – | 1.97 | 39.6 | 0.19 | > 78.7 | 13.5 | 64.7 | 0.342 | > 33.9 | 0.342 | 12.9 | 0.0647 | 18.9 | 0.54 | > 57.8 | 0.399 | 26.5 | 0.412 | 44.8
7 | CC(=O)c1c(C(F)(F)F)n([O-])c2ccc(Cl)cc2[n+]1=O | 3.69 | 13.5 | 1.84 | 3.73 | 1.17 | – | 0.838 | 2.66 | 0.818 | 2.29 | 0.0191 | 0.286 | 0.216 | – | 0.99 | 2.52 | 1.35 | 8.78 | 3.66 | 20.4
8 | CC(C)C1OC(=O)C=C1Sc1ccccc1 (configuration not stated) | – | > 100 | – | > 100 | – | > 100 | – | > 100 | – | > 100 | – | > 100 | – | > 100 | – | > 100 | – | > 100 | – | > 100
9 | NS(=O)(=O)c1cc2c(cc1Cl)NC(Cc1ccccc1)NS2(=O)=O (configuration not stated) | – | > 100 | – | > 100 | – | > 100 | – | > 100 | – | > 100 | – | > 100 | – | > 100 | – | > 100 | – | > 100 | – | > 100
10 | COC(=O)c1ccc2c(c1)nc(-c1cc3ccccc3[nH]c1=O)n2-c1cc(C(C)(C)C)[nH]n1 | 1.24 | > 95.1 | 2.63 | > 100 | – | – | 40 | > 74.7 | 10 | > 100 | 0.784 | > 100 | > 100 | > 100 | > 23.7 | > 100 | 2.24 | > 95.9 | 2 | > 100
11 | O=C1C(Br)=CC2(C=C1Br)CCN=c1c2c(O)c2nc3ccccc3c3ccnc1c23 | 1.01 | 3.29 | 1.41 | 3.44 | 0.712 | 1.72 | 3.47 | 10.3 | 7.23 | 15.1 | 2.48 | 10.6 | 0.765 | 2.69 | 1.54 | 5.92 | 0.672 | 1.91 | 0.918 | 2.39
12 | C1CCN(CCC2CCCCN2)CC1 (configuration not stated) | – | > 100 | – | > 100 | – | > 100 | – | > 100 | – | > 100 | – | > 100 | – | > 100 | – | > 100 | – | > 100 | – | > 100
13 | Cc1cccc(Oc2nccc(-c3c(-c4ccc(F)cc4)ncn3C3CCNCC3)n2)c1C | 8.79 | > 19.8 | 4.68 | 9.58 | 7.81 | > 14.3 | 7.16 | > 16.3 | > 14 | > 25 | 6.24 | > 15 | 6.68 | > 14.4 | 9.16 | > 25 | 13.3 | > 25 | 10.7 | > 23.5
